In experiment [1] the target is Adrenergic, NE Transporter (Homo sapiens, UniProt P23975). The experiment is described as follows: Biochemical assay Adrenergic, NE Transporter. Type of experiment: binding. As to conditions: Hu; for pKi: value in parentheses.
For experiment [2], the target named is T1, Adrenergic α2B (Homo sapiens, UniProt P18089).
T1 sequence (P18089 1-450): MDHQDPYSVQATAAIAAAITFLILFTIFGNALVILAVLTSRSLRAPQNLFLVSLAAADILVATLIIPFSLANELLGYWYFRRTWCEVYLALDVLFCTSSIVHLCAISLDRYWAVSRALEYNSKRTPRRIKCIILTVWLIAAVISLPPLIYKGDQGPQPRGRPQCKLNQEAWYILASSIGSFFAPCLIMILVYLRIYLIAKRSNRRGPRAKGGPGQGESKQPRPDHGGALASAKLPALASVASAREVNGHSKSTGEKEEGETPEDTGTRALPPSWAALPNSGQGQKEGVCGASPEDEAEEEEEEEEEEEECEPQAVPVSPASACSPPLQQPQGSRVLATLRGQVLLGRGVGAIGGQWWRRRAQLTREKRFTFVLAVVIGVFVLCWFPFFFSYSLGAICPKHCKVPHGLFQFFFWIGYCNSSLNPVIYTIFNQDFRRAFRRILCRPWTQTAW
The experiment is described as follows: Biochemical assay Adrenergic α2B. It is filed as binding. As to conditions: Hu; for pKi: value in parentheses.

Experiment [3] concerns the target T2, 5-LO (Homo sapiens, UniProt P09917).
T2 sequence (P09917 1-674): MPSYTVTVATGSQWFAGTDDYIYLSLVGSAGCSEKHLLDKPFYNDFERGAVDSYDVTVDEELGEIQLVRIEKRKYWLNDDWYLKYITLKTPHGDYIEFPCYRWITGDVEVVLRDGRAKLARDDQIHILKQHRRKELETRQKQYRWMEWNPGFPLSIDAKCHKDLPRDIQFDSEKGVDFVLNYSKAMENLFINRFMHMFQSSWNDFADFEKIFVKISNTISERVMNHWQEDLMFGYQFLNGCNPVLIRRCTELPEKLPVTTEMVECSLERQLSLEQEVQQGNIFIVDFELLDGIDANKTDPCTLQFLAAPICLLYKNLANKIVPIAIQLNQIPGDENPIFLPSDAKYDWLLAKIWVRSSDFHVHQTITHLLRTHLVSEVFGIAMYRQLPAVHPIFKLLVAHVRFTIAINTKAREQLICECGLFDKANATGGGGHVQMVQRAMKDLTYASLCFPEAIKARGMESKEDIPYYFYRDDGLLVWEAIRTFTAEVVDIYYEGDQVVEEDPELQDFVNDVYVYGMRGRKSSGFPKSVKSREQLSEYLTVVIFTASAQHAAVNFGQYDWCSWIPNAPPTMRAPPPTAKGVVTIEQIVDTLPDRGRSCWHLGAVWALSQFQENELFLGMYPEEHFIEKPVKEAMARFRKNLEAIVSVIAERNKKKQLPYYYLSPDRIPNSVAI
The experiment in a line: Biochemical assay 5-LO. As to conditions: Hu.

In experiment [4] the test system is IBS/ulcerative colitis. The experiment is described as follows: Example 9: patient with IBS/ulcerative colitis symptoms. It is filed as in vivo, human. As to conditions: 750 mg tablets three times per day for at least two months; present-tense example. How it is done: A person complains of symptoms associated with IBS/ulcerative colitis, including diarrhea with discharge of mucus and blood, cramping abdominal pain, and inflammation and edema of the mucous membrane with patches of ulceration. The patient is treated with tablets containing 750 mg of compound (1), three times per day, for at least two months. […] Similar positive results are observed for other patients complaining of the same or similar symptoms attributable to IBS or ulcerative colitis.

Experiment [5] addresses T3, LTD4 (Cavia porcellus, UniProt Q2NNR5).
T3 sequence (Q2NNR5 1-340): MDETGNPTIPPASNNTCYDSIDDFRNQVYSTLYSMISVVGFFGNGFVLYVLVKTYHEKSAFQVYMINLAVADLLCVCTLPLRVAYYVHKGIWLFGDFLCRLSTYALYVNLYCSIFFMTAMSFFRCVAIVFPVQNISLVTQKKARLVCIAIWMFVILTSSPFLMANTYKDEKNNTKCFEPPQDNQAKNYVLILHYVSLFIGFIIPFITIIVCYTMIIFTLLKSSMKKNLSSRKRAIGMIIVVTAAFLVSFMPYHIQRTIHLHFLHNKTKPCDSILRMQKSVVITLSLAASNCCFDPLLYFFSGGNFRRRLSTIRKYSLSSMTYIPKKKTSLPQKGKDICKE
The experiment in a line: Biochemical assay LTD4. It is filed as binding. As to conditions: LTD4, Gp; for pKi: value in parentheses.

For experiment [6], the target named is LTB4 (Homo sapiens, UniProt Q15722). The experiment is described as follows: Biochemical assay LTB4. Type of experiment: binding. As to conditions: LTB4, Hu.
Chain of LTB4 (Q15722 whole entry): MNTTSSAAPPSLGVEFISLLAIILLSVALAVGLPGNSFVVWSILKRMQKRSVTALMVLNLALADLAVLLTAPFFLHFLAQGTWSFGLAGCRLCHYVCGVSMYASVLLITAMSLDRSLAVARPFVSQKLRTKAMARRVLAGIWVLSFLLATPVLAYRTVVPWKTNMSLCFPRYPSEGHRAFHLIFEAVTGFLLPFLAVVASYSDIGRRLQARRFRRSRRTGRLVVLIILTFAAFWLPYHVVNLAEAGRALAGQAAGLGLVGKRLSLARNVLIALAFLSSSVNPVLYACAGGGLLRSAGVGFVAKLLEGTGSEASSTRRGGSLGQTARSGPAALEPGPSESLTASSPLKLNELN
Experiment [7] deals with PDE1. The experiment is described as follows: Biochemical assay PDE1. As to conditions: PDE1, Bov.

pIC50, pKi: −log10 of the molar value.

The values that follow come from patent US8026282B2, “Phenoxyalkylcarboxylic acid derivatives in the treatment of irritable bowel syndrome” (Medicinova, Inc., priority 2004, dated 2011).

Usually pIC50 stands for −log10 of the IC50, conventionally taken in molar units. A low value points to a large IC50. The pKi is −log10 of the Ki, conventionally taken in molar units.

Chain of Adrenergic, NE Transporter (P23975 whole entry): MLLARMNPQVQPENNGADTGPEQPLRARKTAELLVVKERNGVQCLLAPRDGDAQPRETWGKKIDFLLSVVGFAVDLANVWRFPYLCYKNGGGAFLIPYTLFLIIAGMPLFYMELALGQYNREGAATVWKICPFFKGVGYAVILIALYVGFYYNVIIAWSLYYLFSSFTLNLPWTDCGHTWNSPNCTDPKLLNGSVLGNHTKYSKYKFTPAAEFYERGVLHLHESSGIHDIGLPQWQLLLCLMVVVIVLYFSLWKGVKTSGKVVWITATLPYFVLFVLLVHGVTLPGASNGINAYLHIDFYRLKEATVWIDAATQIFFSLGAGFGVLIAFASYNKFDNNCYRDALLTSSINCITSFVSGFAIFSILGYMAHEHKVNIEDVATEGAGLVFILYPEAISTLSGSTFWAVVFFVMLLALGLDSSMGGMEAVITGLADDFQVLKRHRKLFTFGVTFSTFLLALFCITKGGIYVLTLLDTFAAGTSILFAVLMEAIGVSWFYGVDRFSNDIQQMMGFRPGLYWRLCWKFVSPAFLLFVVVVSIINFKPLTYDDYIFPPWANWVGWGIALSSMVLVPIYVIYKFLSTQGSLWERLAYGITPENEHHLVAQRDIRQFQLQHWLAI

On to `CCCc1c(SCCCOc2ccc(C(C)=O)c(OCCCC(=O)O)c2CCC)ccc(C(C)=O)c1O` [Compound 1, 4-[6-acetyl-3-[3-(4-acetyl-3-hydroxy-2-propylphenylthio)propoxy]-2-propylphenoxy]butyric acid], for which the pIC50 in experiment [1] was 5.46; in experiment [2], 5.55; in experiment [3], 5.95; in experiment [5] it was 5.20; in experiment [6], 5.04; in experiment [7], 6.13. The negative logarithm of the Ki (pKi) is 5.46 in experiment [1], 5.89 in experiment [2], 5.50 in experiment [5] and 5.64 in experiment [6] (value in parentheses). Further, the “symptoms of IBS/ulcerative colitis reported by patient” value in experiment [4] is “positive effects”.
As for `CCCc1c(SCCCOc2ccc(C(C)O)c(OCCCC(=O)O)c2CCC)ccc(C(C)=O)c1O` (stereo not shown) [Compound 2], the pIC50 in experiment [1] is 5.69; in experiment [2] it was 5.80; in experiment [3] it was 5.79; in experiment [5], 5.27; in experiment [7] it was 5.51. Moreover, the negative-log Ki (pKi) in experiment [1] is 5.69; in experiment [2] it was 6.14; in experiment [5] it was 5.57.
